Source: publication PMC8752738, “A propolis-derived small molecule ameliorates metabolic syndrome in obese mice by targeting the CREB/CRTC2 transcriptional complex” (Nature Communications, 2022)
Values joined by “and” are separate entries in the source; they are usually repeats but may differ in a detail not shown here. Equal values may be shown once.

What was measured:
HIS-CREB protein = molecular target: T1, HIS-CREB protein (Homo sapiens, UniProt P16220); test: Isothermal titration calorimetry; type: binding; conditions: HIS-CREB titrated into APC solution, one-site model; read-out: equilibrium dissociation constant (KD) between APC and CREB
T1 construct: made in house
T1 sequence (P16220 whole entry): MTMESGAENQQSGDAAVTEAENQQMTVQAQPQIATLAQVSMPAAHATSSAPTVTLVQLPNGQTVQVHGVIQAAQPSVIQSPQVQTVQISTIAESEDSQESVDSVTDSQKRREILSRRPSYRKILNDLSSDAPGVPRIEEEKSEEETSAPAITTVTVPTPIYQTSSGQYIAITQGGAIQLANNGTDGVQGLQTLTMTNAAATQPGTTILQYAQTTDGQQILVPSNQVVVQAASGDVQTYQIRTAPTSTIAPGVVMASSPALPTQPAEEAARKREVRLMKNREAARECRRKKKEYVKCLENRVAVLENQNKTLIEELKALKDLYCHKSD
Method: Isothermal titration calorimetry was performed using a MicroCal iTC200 calorimeter (Freiburg, Germany). The purified HIS-CREB protein and APC were diluted in buffer (PBS with 500 mM NaCl and 10% glycine, pH 8.0). APC solution was titrated by injection of HIS-CREB. The originally released heat from molecules binding was recorded and analyzed by Origin9 software (Origin Lab) supplied with the instrument.

CBP = CBP (Homo sapiens, UniProt Q92793); test: Acetyltransferase activity of CBP (H3K27ac immunoblot, HEK293 cells); type: cell-based; conditions: for relative H3K27ac level: Fig 3d replicates, HA-CBP +, TSA-0.5uM +
CBP, sequence (Q92793 whole entry): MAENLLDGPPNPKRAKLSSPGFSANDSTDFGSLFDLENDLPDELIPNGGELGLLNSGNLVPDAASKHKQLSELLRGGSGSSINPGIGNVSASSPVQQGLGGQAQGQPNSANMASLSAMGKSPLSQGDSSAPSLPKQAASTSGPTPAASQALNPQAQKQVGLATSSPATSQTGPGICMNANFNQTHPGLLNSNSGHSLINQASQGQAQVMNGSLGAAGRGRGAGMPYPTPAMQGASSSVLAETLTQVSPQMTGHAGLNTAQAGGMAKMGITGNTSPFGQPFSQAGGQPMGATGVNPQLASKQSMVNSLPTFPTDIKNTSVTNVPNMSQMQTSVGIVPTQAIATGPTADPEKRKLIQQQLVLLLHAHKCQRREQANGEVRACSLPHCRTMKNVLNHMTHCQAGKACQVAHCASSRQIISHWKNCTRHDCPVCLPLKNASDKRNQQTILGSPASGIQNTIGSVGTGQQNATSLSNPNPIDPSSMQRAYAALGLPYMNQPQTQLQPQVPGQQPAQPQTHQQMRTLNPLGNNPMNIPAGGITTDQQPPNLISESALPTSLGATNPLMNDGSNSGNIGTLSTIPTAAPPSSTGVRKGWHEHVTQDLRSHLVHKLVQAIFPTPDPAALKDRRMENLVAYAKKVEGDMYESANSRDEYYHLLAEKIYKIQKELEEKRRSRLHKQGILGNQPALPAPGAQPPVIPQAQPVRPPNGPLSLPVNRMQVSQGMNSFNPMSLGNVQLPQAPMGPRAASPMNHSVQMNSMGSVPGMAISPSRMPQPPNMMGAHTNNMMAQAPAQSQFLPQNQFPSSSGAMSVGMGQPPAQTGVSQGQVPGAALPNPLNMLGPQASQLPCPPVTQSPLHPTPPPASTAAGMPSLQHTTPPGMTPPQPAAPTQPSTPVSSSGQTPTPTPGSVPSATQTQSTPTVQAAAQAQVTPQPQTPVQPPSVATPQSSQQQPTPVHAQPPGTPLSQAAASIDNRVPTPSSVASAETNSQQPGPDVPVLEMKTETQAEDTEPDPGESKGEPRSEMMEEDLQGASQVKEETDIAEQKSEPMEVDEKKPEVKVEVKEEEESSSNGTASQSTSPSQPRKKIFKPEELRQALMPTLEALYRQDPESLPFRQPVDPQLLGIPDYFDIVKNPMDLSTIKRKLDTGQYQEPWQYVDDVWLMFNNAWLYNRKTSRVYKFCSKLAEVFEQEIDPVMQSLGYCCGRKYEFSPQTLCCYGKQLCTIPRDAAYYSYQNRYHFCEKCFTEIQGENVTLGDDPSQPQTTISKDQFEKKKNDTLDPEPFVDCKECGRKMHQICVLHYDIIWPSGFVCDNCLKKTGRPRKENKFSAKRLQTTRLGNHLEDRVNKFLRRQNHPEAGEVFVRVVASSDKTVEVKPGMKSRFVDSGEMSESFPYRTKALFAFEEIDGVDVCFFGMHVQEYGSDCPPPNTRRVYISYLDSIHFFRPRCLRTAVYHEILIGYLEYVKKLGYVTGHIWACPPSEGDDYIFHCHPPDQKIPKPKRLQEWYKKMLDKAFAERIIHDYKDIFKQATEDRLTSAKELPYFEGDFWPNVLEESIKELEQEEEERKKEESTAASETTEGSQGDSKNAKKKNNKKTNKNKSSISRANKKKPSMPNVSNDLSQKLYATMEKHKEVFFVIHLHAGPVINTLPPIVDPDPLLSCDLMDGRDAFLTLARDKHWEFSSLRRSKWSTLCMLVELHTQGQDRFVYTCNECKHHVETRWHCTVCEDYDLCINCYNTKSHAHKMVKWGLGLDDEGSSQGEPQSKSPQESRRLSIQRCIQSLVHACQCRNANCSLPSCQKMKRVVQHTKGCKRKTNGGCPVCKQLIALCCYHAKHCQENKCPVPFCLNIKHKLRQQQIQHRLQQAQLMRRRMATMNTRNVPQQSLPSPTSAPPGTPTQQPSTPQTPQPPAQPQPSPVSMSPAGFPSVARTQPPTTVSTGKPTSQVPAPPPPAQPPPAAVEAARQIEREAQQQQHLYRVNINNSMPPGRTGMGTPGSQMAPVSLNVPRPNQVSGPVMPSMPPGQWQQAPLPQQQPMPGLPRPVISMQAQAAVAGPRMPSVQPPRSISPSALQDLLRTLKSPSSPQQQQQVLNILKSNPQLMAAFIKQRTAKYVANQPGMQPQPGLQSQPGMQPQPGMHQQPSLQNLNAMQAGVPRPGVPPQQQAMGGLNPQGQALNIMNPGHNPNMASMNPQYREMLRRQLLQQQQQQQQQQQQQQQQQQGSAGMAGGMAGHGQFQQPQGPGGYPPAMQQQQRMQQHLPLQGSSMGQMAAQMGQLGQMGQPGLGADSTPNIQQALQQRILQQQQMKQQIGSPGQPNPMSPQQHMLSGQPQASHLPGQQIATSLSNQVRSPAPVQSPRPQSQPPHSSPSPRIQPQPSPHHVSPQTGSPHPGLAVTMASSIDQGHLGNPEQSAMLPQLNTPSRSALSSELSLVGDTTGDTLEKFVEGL
From the text: Fig. 3 APC inhibits CRTC2 interacting with CREB-ZIP and reduces acetyltransferase activity of CBP by binding with CREB protein directly. a Isothermal titration calorimetry (ITC) of HIS-CREB protein solution titrated into APC solution. The bottom solid line represents a nonlinear least-squares fitted by a single-site binding model. One of two independent experiments is shown here. b IC50 of APC inhibitory activity detected by CREB–CRTC2 two-hybrid assay in HEK293T cells (n = 3 per treatment, data are represented as mean ± SEM). One of three independent experiments is shown here. c Immunoprecipitation analysis of FLAG-CRTC2-WT recovered by anti-MYC antibody from HEK293 cells co-transfected with plasmids for a Myc-Creb-Zip fragment and the FLAG-Crtc2-Wt, stimulated by FSK (10 nM) for 2-h before harvest. APC (1–10 μM) was included in immunoprecipitation mixtures as indicated. Top represents one of three independent experiments, and the relative gray density of FLAG normalized to MYC in MYC-IP- factions is shown as a bar graph (bottom, n = 3). Data are represented as mean ± SEM; P values were determined by one-way ANOVA followed Dunnett’s multiple comparisons test. d Immunoblotting analysis of the acetyltransferase activity of CBP. The protein levels of H3K27ac and total Histone H3 were determined using specific antibodies from HEK293 cell lysate overexpressing HA-Cbp plasmid. […] The top represents one of three independent experiments, and the relative gray density of H3K27ac normalized to total Histone H3 in cell lysate is shown as a bar graph (bottom, n = 3). Data are represented as mean ± SEM; P values were determined by one-way ANOVA followed Dunnett’s multiple comparisons test. ns, P > 0.05; *P < 0.05; **P < 0.01. Sources data for this figure are provided as source data file.

[1] = system: promoter occupancy in primary hepatocytes; test: ChIP assays; type: cell-based, mouse; conditions: for ChIP: CBP, CRE-PGC1a, mean / ChIP: CBP, CRE-Pck1, mean: N=4
HEK293T cells = test: MTT assay, HEK293T cells; type: cell-based, human; conditions: Supp. Fig.10 b; individual replicates; Ctrl about 100
Method: 1 Supplementary Figure 10. A57 is novel inhibitor of the CREB/CRTC2 protein complex.
2 a) The inhibitory-activity of A57 as determined by two-hybrid reporter assay. HEK293T cells were
3 co-transfected with CREB/CRTC2 two-hybrid reporter system plasmids, following incubation with
4 indicated small molecules (10 µM) overnight before luciferase reporter assays (n=4 per treatment).
5 One of three independent experiments is shown here. Data are represented as mean ± SEM. *,
6 p < 0.05; **, p < 0.01; p values were determined by one-way ANOVA followed Dunnett’s multiple
8 b) Combinatorial analysis of the cell toxicity and inhibitory activity of A57. The CREB/CRTC2-two
9 hybrid reporter activity (as a normalized percentage) is the X-axis, and the cell activity tested by MTT
10 assay (as a normalized percentage) is the Y-axis. n=3.
11 c) Immunoblot of P-CREB and CRTC2 de-phosphorylation in primary hepatocytes incubated with
12 A57 and APC (10 µM) 1-h prior to glucagon (100 nM) stimulation for 30 min. One result from three
13 experiments is shown here (top), and relative P-CREB normalized by CREB is presented as a bar
14 graph (bottom, n=3). […]
15 values were determined by two-way ANOVA followed Bonferroni’s multiple comparisons test. […]
18 as mean ± SEM. ns, p > 0.05; *, p < 0.05; **, p < 0.01; p values were determined by two-way ANOVA […]

[2] = mean over Gluc0, Gluc30, Gluc60
[3] = primary hepatocytes exposed to glucagon, APC 10 μM

For CC(C)=CCc1cc(C=CC(=O)O)cc(CC=C(C)C)c1O [APC, 3,5-diprenyl-4-hydroxycinnamic acid], the Kd (HIS-CREB protein) was ~3.2 µM and 3.2 µM, the “relative H3K27ac level” value (CBP; APC 2 uM) was 1.193 and 1.187 and 1.293 and the “relative H3K27ac level” value (CBP; APC 5 uM) was 0.5384 and 0.3648 and 0.6529. The “acetylation level of H3K27ac induced by CBP” value (CBP; HEK293 cells overexpressing HA-Cbp) was “dose-dependently reduced”, the “ChIP CREB in LXRa promoter, Input %” value ([1]; ChIP-CREB, LXRa promoter, individual replicates, n=4) was 48.6099 Input % and 36.4614 Input % and 38.9243 Input % and 32.1584 Input % and the “ChIP CREB in LXRa promoter, group mean (Mean 1)” value ([1]; ChIP-CREB, LXRa promoter, mean of N=4) was 39.04 Input %. The “ChIP CRTC2 in LXRa promoter, Input %” value ([1]; ChIP-CRTC2, LXRa promoter, individual replicates, n=4) was 91.9916 Input % and 76.2395 Input % and 65.9044 Input % and 83.3167 Input %, the “ChIP CRTC2 in LXRa promoter, group mean (Mean 1)” value ([1]; ChIP-CRTC2, LXRa promoter, mean of N=4) was 79.36 Input % and the “ChIP-IgG in LXRa promoter, Input %” value ([1]; ChIP-IgG (control antibody), LXRa promoter, individual replicates, n=4) was 0.8383 Input % and 0.5702 Input % and 0.8279 Input % and 1.761 Input %. For the same compound, the “ChIP-IgG in LXRa promoter, group mean (Mean 1)” value ([1]; ChIP-IgG (control antibody), LXRa promoter, mean of N=4) was 0.9995 Input %, the “ChIP: LXRa recuited in Srebf1 promoter, relative enrichment folds, group mean (Mean 1)” value ([1]; ChIP-LXRa, Srebf1 promoter, mean of N=4) was 0.4914 fold and the “ChIP: RXRa recuited in Srebf1 promoter, relative enrichment folds, group mean (Mean 1)” value ([1]; ChIP-RXRa, Srebf1 promoter, mean of N=4) was 0.5838 fold. The “ChIP: LXRa recuited in Srebf1 promoter, relative enrichment folds” value ([1]; ChIP:LXRa, Srebf1 promoter, individual replicates, n=4) was 0.5482 fold and 0.5209 fold and 0.4024 fold and 0.494 fold, the “ChIP: RXRa recuited in Srebf1 promoter, relative enrichment folds” value ([1]; ChIP:RXRa, Srebf1 promoter, individual replicates, n=4) was 0.4207 fold and 0.6691 fold and 0.5173 fold and 0.7279 fold and the “ChIP: CBP, CRE-PGC1a, mean” value ([1]; Gluc0) was 0.891. The “ChIP: CBP, CRE-Pck1, mean” value ([1]; Gluc0) was 0.921, the “ChIP: CBP, CRE-PGC1a, mean” value ([1]; Gluc30) was 0.574 and the “ChIP: CBP, CRE-Pck1, mean” value ([1]; Gluc30) was 0.749. For the same compound, the “ChIP: CBP, CRE-PGC1a, mean” value ([1]; Gluc60) was 0.582, the “ChIP: CBP, CRE-Pck1, mean” value ([1]; Gluc60) was 0.834 and the “Mean of APC_ChIP: CBP, CRE-G6pc” value [1, 2] was 1.496. The “Mean of ChIP: CBP & APC, CRE-Pck1” value [1, 2] was 0.835, the “Mean of ChIP: CBP & APC, CRE-Pgc-1a” value [1, 2] was 0.682 and the “CRTC2 recruited to CRE sites of G6pc, Pgc-1α and Pck1 promoters (ChIP)” value [1, 3] was “significantly attenuated”. For the same compound, the “occupancy of CREB or CBP at CRE sites (ChIP)” value [1, 3] was “little effect”, the “LXRα and RXRα recruited to LXRE element of Srebf1 promoter (ChIP)” value ([1]; primary hepatocytes, APC 10 μM) was “reduced” and the “occupancy of CRTC2 on half CRE site of Lxrα promoter (ChIP)” value ([1]; primary hepatocytes, glucagon, APC 10 μM) was “attenuated”. For the same compound, the Cell activity % (HEK293T cells) was 95.723% and 93.186% and 92.837%.
